Measurements as given in BindingDB's records for doi:10.1128/aac.00737-07 (Duke University Medical Center, 2008).

Legend:
[1] = Inhibition of HIV1 (isolate YU2) envelope glycoprotein 120-mediated membrane fusion between virus-transfected african green monkey COS cells and human TZM-bl cells by luciferase-based cell-cell fusion assay in absence of IC9564
[2] = Inhibition of HIV1 (isolate YU2) envelope glycoprotein 120-mediated membrane fusion between virus-transfected african green monkey COS cells and human TZM-bl cells by luciferase-based cell-cell fusion assay in presence of IC9564

Work on `COc1ccnc2[nH]cc(C(=O)C(=O)N3CCN(C(=O)c4ccccc4)C[C@H]3C)c12` [(R)-1-(4-benzoyl-2-methylpiperazin-1-yl)-2-(4-methoxy-1H-pyrrolo[2,3-b]pyridin-3-yl)ethane-1,2-dione] yielded an IC50 [1] of 137 nM and an IC50 [2] of 34.4 nM.
